Three molecules from patent publication US20080206198A1, “Compounds and methods for pharmico-gene therapy of epithelial sodium channel associated disorders” (priority 2003, published 2008) can be followed below.

For one experiment, the system named is HeLa cells. Description: AAV2 FLAG-Luc transduction of HeLa cells (luciferase screen). The conditions noted are these: for concentration at which transduction was enhanced: HeLa cells. It is filed as cell-based, human. An excerpt:
(§1) A. To screen for agents that enhance rAAV transduction, any number of cells can be used. A range of concentrations of the agent to be tested can be determined based on, for instance desirable profiles of the agent, desirable toxicity profiles of the agent and/or concentration of the agents employed in vivo. The usefulness of the cell type chosen for the screen can be confirmed by testing compounds, e.g., proteasome inhibitors such as LLnL and ZLL which are known to increase rAAV transduction. For example, a AAV2 FLAG-Luc vector was employed to transduce HeLa, ferret fibroblasts, IB3 and Huh (liver) cells in the presence or absence of the proteasome inhibitor MG132. MG132 was confirmed to enhance AAV transduction in all cell types tested: HeLa cell transduction was enhanced about 500-fold at 80 μM, and 200-fold at 40 μM, MG132; ferret fibroblast cell transduction was enhanced about 200-fold at 20 μM, and 17-fold at 4 μM, MG132; IB3-1 cell transduction was enhanced about 30 to 70-fold at 20 to 80 μM MG132; and Huh-7 cell transduction was enhanced about 15-fold at 20 to 80 μM MG132. There was no difference in rAAV transduction efficiency in HeLa cells when either DMSO or ETOH was used as a vehicle for MG132. B. HeLa cells were selected to screen for additional agents that enhance rAAV transduction, although any cell strain or line; or primary cells, may be employed. […] The range of concentrations of the agents to be tested were selected based on solubility profiles, toxicity profiles and/or concentrations previously employed in vivo.
HeLa cells were infected for 2 hours with an MOI of 100 rAAV in the presence of agents, e.g., ritonavir (Norvir) (1, 10 and 100 μM), cyclosporin A (2.5, 25 and 250 μg/ml), epoxomicin (1, 10 and 50 μM), alcacinomycin A (5, 50 or 500 μM), chymostatin (1, 10 and 100 μM), bestatin (1, 10 and 100 μM), doxorubicin (adriamycin) (0.1, 1 and 10 μM), camptothecin (camptosar) (1, 10 and 100 μM), eicosapentanoic acid (1, 10 and 100 μM), tannic acid (2, 20, 200 and 2000 μM), simvastatin, prodrug (2, 20 and 200 μM), cisplatin (0.2, 2 and 20 μg/mL), and chloroquine (4, 40 and 400 μM). Forty-eight hours after infection, cells were harvested for analysis. rAAV transduction was measured by removing the media from the cell cultures, adding 100 μL reporter lysis buffer (RLB) and freezing. The supernatant was thawed and transferred to microfuge tubes, freeze thawed an additional 2 times, clarified by centrifugation for 10 minutes and then analyzed for reporter gene expression on the lumometer. Protein was determined by Bradford analysis and results were expressed as relative light units per mg protein (RLU/mg).
Based on results with doxorubicin, a small number of FDA approved anthracyclines were tested for their relative in vitro and in vivo activities on AAV transduction. HeLa cells were infected with 100 ppc AAV2FLAG-Luc for 2 hours in the presence of different anthracyclines, e.g., doxorubicin, daunarubicin (Cerubidine), epirubicin (Ellence™), and idarubicin (Idamycin®), and cells harvested 48 hours later. The anthracyclines were pharmaceutical grade, and prepared according to the manufacturer's instructions. Prior to use, the agents were diluted in sterile water to an equal mass, e.g., 0.6 μg/mL, 3 μg/mL and 6 μg/mL. For example, 3 μg/mL idamycin increased luciferase expression by over 5000-fold while doxorubin increased luciferase expression by 58-fold. Generally, the potency was as follows: idarubicin>daunarubicin>epirubicin>doxorubicin.

The test system of another experiment is ferret fibroblasts. In words: rAAV transduction of ferret fibroblasts. In kind it is cell-based. The following applies: for concentration at which transduction was enhanced: ferret fibroblast cells.
Source text: as §1
(§2) C. To determine whether combinations of agents that enhance rAAV transduction efficiency have synergistic or additive effects when used in combination, cells were contacted with the proteasome modulator, doxorubicin, and the proteasome inhibitor Z-LLL or LLnL. Different AAV vectors were tested, including splicing vectors and pseudotyped rAAV. Viral stocks utilized were as follows: Av2RSVluc, 5×10^8 particle/μl; Av2RSVlucCap5 (also referred to as Av2/5 CMVLuc), 2×10^9 particle/μl; Av2CMVluc, 1.3×10^9 particle/μl; and Av2CMVlucCap5, 1.1×109 particle/μl. Combinations of agents were compared to the agents used alone to determine the efficiency of transduction. LLnL was used at 40, 200 or 400 μM, Z-LLL at 4 μM and doxorubicin at 0.5 or 1 μM when employed alone. When a combination of LLnL and doxorubicin was used, LLnL was used at 4, 10, 20, 40, 200 or 400 μM and doxorubicin at 1 or 5 μM. The apical surface of polarized airway epithelia, HeLa cells or ferret fibroblast was contacted with the agents and rAAV (5×10^9 particles per well).

In experiment [1] the test system is polarized airway epithelia. In words: Apical rAAV (AAV2 and AAV5 capsid) infection of polarized airway epithelia with agent combinations. In kind it is cell-based, human. The conditions noted are these: for concentration at which transduction was enhanced: polarized airway epithelial cells. As to the method:
as §2

A further experiment deals with A549 cells. Description: rAAV transduction of A549 cells. It is filed as cell-based, human. The conditions noted are these: for induction of rAAV transduction: 24 hours post-infection. As to the method:
as §2
(§3) LLnL and Z-LLL are two tripeptidyl aldehydes shown to inhibit calpains, cathepsins, cysteine proteases as well as the chymotrypsin-like protease activity of proteasomes (Wagner et al., 2002; Donkor, 2000; Sasaki et al., 1990). […] Both classes of proteasome inhibitors bind tightly to the proteasome complex. Dose response curves for these two proteasome-modulating agents were evaluated on IB3, A549, Hela, and primary fibroblasts. The responses were consistent for a number of cell lines and for three different promoters driving luciferase expression. For one set, CMV-driven luciferase constructs with an AAV2-based genome were employed that were packaged into AV2 or AV5 capsids. Cells were infected at various doses of AV2Luc and AV2/5Luc (MOIs 100 to 1000 particles/cell). At the time of infection, cells were treated with various concentrations of LLnL or Doxorubicin and gene expression was assayed at 24 hours post-infection. The effect of proteasome inhibitors on nuclear uptake of virus was evaluated using a previously-described protocol for fractionating viral DNA in the cytoplasm and nucleus (Xiao et al., 2002). Viral DNA content in the cytoplasmic and nuclear fractions was then evaluated by slot blot hybridization against a Luciferase DNA probe.

The next experiment has as its system IB3 cells. Description: Nuclear versus cytoplasmic viral DNA fractionation in rAAV2-infected IB3 cells. It is filed as cell-based, human. As to the method: as §3

Peptide text beside a SMILES is read from it. * marks the point of attachment. Cbz = O=C(OCc1ccccc1)*

For the molecule `CC(C)C[C@@H](C=O)NC(=O)[C@H](CC(C)C)NC(=O)[C@H](CC(C)C)NC(=O)OCc1ccccc1` [Z-LLL, N-carbobenzoxyl-L-leucinyl-L-leucinyl-L-leucinal] (Cbz-Leu-Leu-Leu-aldehyde), the “enhancement of HeLa cell transduction” value is reported as “about 200 fold” in the experiment on HeLa cells (40 μM) and “about 500 fold” with HeLa cells (80 μM). Moreover, the “enhancement of ferret fibroblast cell transduction” value in the experiment on ferret fibroblasts (4 μM) was about 17 fold; with ferret fibroblasts (20 μM), “about 200 fold”.
Consider `COc1cccc2c1C(=O)c1c(O)c3c(c(O)c1C2=O)C[C@@](O)(C(=O)CO)C[C@@H]3O[C@H]1C[C@H](N)[C@H](O)[C@H](C)O1` [doxorubicin], for which the “result in cell line screening” value in the experiment on HeLa cells is “tested positive”. For the same molecule, the “increase in luciferase expression” value in the experiment with HeLa cells (3 μg/mL, 100 ppc AAV2FLAG-Luc, harvest 48 hours) was 58 fold. In addition, the “order of potency among anthracyclines” value in the experiment with HeLa cells (0.6, 3 and 6 μg/mL) is reported as “idarubicin>daunarubicin>epirubicin>doxorubicin”. The “concentration at which transduction was enhanced” value in the experiment on HeLa cells is 1 µM; in the experiment with ferret fibroblasts it was 1 µM; in experiment [1], 5 µM; in the experiment with A549 cells, 5 µM. The “dose dependence of transduction” value in the experiment on HeLa cells (dose ranges tested) was “dose-dependent increase in transduction”. For the same molecule, in the experiment with ferret fibroblasts (ferret fibroblasts infected with lacZ splicing vectors), the enhancement of transduction result was “about 100 fold”. Besides, in experiment [1] (in the presence of doxorubicin), the “induction of AAV2 and AAV5 apical infection of polarized cells” value was 200 to 600 fold. The “induction of rAAV transduction” value with A549 cells was found to be 200 fold. Besides, in the experiment on IB3 cells, the “fraction of viral DNA in the nuclear compartment” value is recorded as “significantly increased the fraction of viral DNA in the nuclear compartment”.
With “N-acetyl-L-leucinyl-L-leucinal-L-norleucinal [LLnL]”, the “concentration at which transduction was enhanced” value in the experiment with HeLa cells is 40 µM; with ferret fibroblasts, 40 µM; in experiment [1], 40 µM; with A549 cells, 200 to 400 µM. The “induction of rAAV transduction” value with A549 cells is 10-fold lower levels of induction. Moreover, the “fraction of viral DNA in the nuclear compartment” value in the experiment on IB3 cells was “significantly increased the fraction of viral DNA in the nuclear compartment”.
